From patent publication US20040087561A1, “Treatment of sexual dysfunction” (priority 2000, published 2004)

Key:
[1] = test system: Sprague Dawley male rats; test: Sexual behaviour of normal (sexually vigorous) male rats; format: in vivo, rat; settings: Compound (1) 15 mg/kg or fluoxetine 20 mg/kg i.p., 1 h before test, vs vehicle
Experimental: The potentially stimulatory effect of Compound (1) on male sexual behaviour has been tested on sexually vigorous rats. Sprague Dawley male rats (Charles River, UK) were kept, 4 rats per cage, in a reversed lighting regime (12:12 hours, lights off at 5.00 h), with free access to food and water. The rats were pre-selected by being presented with a receptive female at 4 days intervals, i.e. every third day (having 2 clear days between presentations) until completing 6-7 days of baseline determination. The animals showing consistently vigorous behaviour (ejaculatory latencies <300 s) were chosen for further experiments (n=24). Animals were randomised into three groups. All animals received all three treatments following a latin-square design. Treatments were administered once a week, with a baseline test in between treatments (4 days intervals between baseline and test day). Treatments were Compound (1) (15 mg/kg, dissolved in 50% 2-hydroxypropyl-β-cyclodextrin in saline), vehicle, or Fluoxetine (20 mg/kg dissolved in 100% DMSO). All treatments were administered i.p. in a 1 ml/kg volume, 1 h before tests.
For all the sexual behaviour tests, the males were placed in an observation arena (50-60 cm diameter), starting 5 hours into the dark cycle and observed under red illumination. Three to 4 minutes after placing the male in the arena, a receptive female (ovariectomised, bearing a 7 mm Silastic implant of oestradiol benzoate) was introduced to the arena and the following parameters noted: Mount Latency: time (in seconds) taken between introduction of female and first mount. A maximum time of 15 minutes (900 seconds) was allowed, and the test terminated if no mounts were recorded within that time (FIG. 11), Intromission Latency: time (in seconds) taken between introduction of female and first intromission (FIG. 12), Number of Mounts: to reach ejaculation. When ejaculation was not reached, the number of mounts was not analyzed, Number of Intromissions: to reach ejaculation. When ejaculation was not reached, the number of intromissions was not analyzed (FIG. 13 is number of mounts+intromissions), Ejaculation Latency: time (in seconds) taken from first intromission to ejaculation. A maximum time of 30 minutes (1800 seconds) was given, and the test terminated if ejaculation was not achieved in that time (FIG. 14), and Refractory Period: time (in seconds) taken from ejaculation to the first mount of the next series of sexual activity. In those animals reaching ejaculation the test was terminated at the end of the refractory period, as indicated by the first mount of the next sexual cycle (FIG. 15).
A one-way ANOVA followed by Dunnett's t test was used to compare treated vs vehicle groups each day of testing, for all the sexual behaviour parameters. (*P<0.05, **P<0.01; n=15-16).

[2] = test system: Sprague Dawley male rats; test: Sexual behaviour of sexually dysfunctional (fluoxetine-treated) male rats; format: in vivo, rat; settings: fluoxetine 20 mg/kg i.p. 3 days (vs vehicle+vehicle); day 4 Compound (1) 15 mg/kg or yohimbine 2 mg/kg i.p. 1 h before test (vs fluoxetine+vehicle)
Experimental: Sprague Dawley male rats (Charles River, UK) were kept, 4 rats per cage, in a reversed lighting regime (12:12 hours, lights off at 5.00 h), with free access to food and water. The rats were pre-selected by being presented with a receptive female at […], i.e. every third day (haying 2 clear days between presentations) until completing 6-7 trials of baseline determination. The animals showing consistently vigorous behaviour (ejaculatory latencies <300 s) were chosen for further experiments. Animals were treated for 3 consecutive days with either vehicle (water) or fluoxetine (20 mg/kg, i.p., in a 2 ml/kg dosing volume). On the fourth day, the animals treated with water received vehicle (veh+veh) and the animals treated with fluoxetine received one of the three following treatments: Compound (1) (15 mg/kg, dissolved in 50% 2-hydroxypropyl-β-cyclodextrin in saline), vehicle (cyclodextrine), or yohimbine (2 mg/kg dissolved in water). All treatments were administered i.p. in a 1 ml/kg volume, 1 h before tests.
For all the sexual behaviour tests, the males were placed in an observation arena (50-60 cm diameter), starting 5 hours into the dark cycle and observed under red illumination. Three to 4 minutes after placing the male in the arena, a receptive female (ovariectomised, bearing a 7 mm Silastic implant of oestradiol benzoate) was introduced to the arena and the following parameters noted: Mount Latency: time (in seconds) taken between introduction of female and first mount. A maximum time of 15 minutes (900 seconds) was allowed, and the test terminated if no mounts were recorded within that time (FIG. 16), Ejaculation Latency: time (in seconds) taken from first intromission to ejaculation. A maximum time of 30 minutes (1800 seconds) was given, and the test terminated if ejaculation was not achieved in that time (FIG. 17), Percentage of males achieving ejaculation within 30 minutes was calculated (FIG. 18).
A one-way ANOVA followed by Dunnett's t test was used to compare the fluoxetine+vehicle group and other groups for mount and ejaculatory latencies. Percentage of animals ejaculating was analysed using a Chi-square test followed by Fisher's test. (*: P<0.05, **: P<0.01, ***: P<0.001; n=15-19).

[3] = test system: ovariectomised female Sprague Dawley rats; test: Female rat sexual proceptivity (time investigating male vs female stimulus); format: in vivo; settings: day 1; Compound (1) 15 mg/kg i.p. 1 h before; progesterone 0.5 mg/0.1 ml s.c. 4 h before; vs vehicle, P<0.01
Experimental: Ovariectomised adult female Sprague Dawley rats (180-200 g, from Charles River) were housed in groups of 6 in a reversed lighting system of 12 h light:dark (lights off 7.00-19.00 h). Two weeks after ovariectomy they were used for sexual activity tests. The experiments started at least 5 h into the dark period.
Tests were carried out in a circular arena of 90 cm diameter, surrounded by a 30 cm high wall. Two small cages with wire-mesh front (15×15 cm) are fixed into the wall such that the front of the cage is <> with the wall and the 2 cages are opposite each other. They contained two stimuli animals: an intact sexually experienced male and a receptive female (ovariectomised, primed with 5 μg oestradiol benzoate dissolved in corn oil and injected subcutaneously 48 hours before the test and with 0.5 mg of progesterone four hours before the test). Sexually naive test and control animals were used. Forty eight hours before the tests, both the test and control animals were primed with 5 μg oestradiol benzoate. For animals used as positive controls, progesterone (0.5 mg/0.1 ml) was dissolved in corn oil and administered subcutaneously (s.c.), 4 h before the test. Test and control animals were introduced one at a time for 10 minute periods into the arena. During the 10 min test, the time that the test or positive control animal spent investigating each stimulus animal was noted. The arena was thoroughly cleaned between animals. The position of the male/female stimuli boxes was randomised between animals, in order to avoid place preference. The difference in the percentage of time spent investigating the male minus the female stimuli was calculated, out of the total time spent investigating stimuli animals.
Compound (1) was dissolved in 100% β-cyclodextrin and then diluted with saline to a final solution of 50% 2-hydroxypropyl-β-cyclodextrin. It was administered intraperitoneally (i.p.) at doses of 3 and 10 mg/kg, in a dosing volume of 1 ml/kg, 1 h before tests. Progesterone (0.5 mg/0.1 ml) was dissolved in corn oil and administered subcutaneously (s.c.), 4 h before test, as a positive control.
Ovariectomised adult female Sprague Dawley rats (180-200 g) were housed in groups of 5 in a reversed lighting system of 12 h light:dark (lights off 5.00-17.00 h). They were used for the experiments at least two weeks after ovariectomy. Forty eight hours before tests, the animals were primed with oestradiol benzoate (5 μg/0.1 ml in corn oil, s.c.). On day 1, progesterone (0.5 mg/0.1 ml, in corn oil, s.c.) was administered to one of the groups 4 h before tests, as a positive control. Compound (1) (15 mg/kg, i.p.) was administered in 50% 2-hydroxypropyl-β-cyclodextrin, 1 h before tests. The test lasted 10 minutes and was carried out as described before. The difference in the percentage of time spent investigating the male minus the female stimuli was calculated, out of the total time spent investigating stimuli animals. Animals were submitted to a test on day 1 and on day 15. From day 2 to 14 the Compound (1) group received a daily injection of the compound (15 mg/kg, i.p.), while both the vehicle and the progesterone groups received an injection of vehicle. On day 15 the test took place again, as described for day 1.
Ovariectomised female rats (Sprague Dawley, obtained from Charles River, UK) were stereotaxically implanted (coordinates 0.89 mm behind Bregma, 1.3 mm lateral and 2.5 mm vertical) with stainless steel cannulae (6 mm long, O.D. 0.75 mm), held in place with dental cement. Animals were housed in groups of three and returned to a reversed lighting system of 12 h light:dark (lights off 5.00-17.00 h). Correct placement of the cannulae was assessed post-mortem. Rats were used for tests two weeks after ovariectomy (one week after cannulation). The experiments started at least 5 h into the dark period. […]

[4] = test system: ovariectomised female Sprague Dawley rats; test: Inhibition of female rat sexual proceptivity by NMB and its antagonism; format: in vivo
Experimental: Ovariectomised female rats (Sprague Dawley, obtained from Charles River, UK) were stereotaxically implanted (coordinates 0.89 mm behind Bregma, 1.3 mm lateral and 2.5 mm vertical) with stainless steel cannulae (6 mm long, O.D. 0.75 mm), held in place with dental cement. Animals were housed in groups of three and returned to a reversed lighting system of 12 h light:dark (lights off 5.00-17.00 h). Correct placement of the cannulae was assessed post-mortem. Rats were used for tests two weeks after ovariectomy (one week after cannulation). The experiments started at least 5 h into the dark period. Forty eight hours before tests, the animals were primed with 5 μg oestradiol benzoate (OB) (s.c, in corn oil) and adapted to the apparatus (in the absence of stimuli animals) for 10 min on 2 consecutive days prior testing. The 10 min test was carried out as previously described. The difference in the percentage of time spent investigating male minus female was calculated, out of the total time spent investigating stimuli.
Progesterone (Prog, 0.5 mg/0.1 ml) was dissolved in corn oil and administered subcutaneously (s.c.), 4 h before test, to induce proceptive behaviour. Compound (1) (15 mg/kg, i.p.) was dissolved in 50% 2-hydroxypropyl-β-cyclodextrin in saline and administered 1 h before the i.c.v. administration. Neuromedin B was obtained from Bachem, UK. It was dissolved in isotonic saline and administered i.c.v. over a 30 sec period, with the aid of a pump set to deliver a flow of 10 μl/min, 10 min before tests. The dosing volume was 5 μl/rat. Each rat received a total amount of 100 ng.
From the present study we can conclude that stimulation of BB1 receptors with an agonist results in inhibition of proceptive behaviour. This inhibitory effect may be prevented by the presence of an antagonist. e.g. Compound (1) In FIG. 5 the bars represent percentage of time spent investigating male, minus the percentage of time spent investigating the female stimuli+SEM, (n=8-12 per group). ***P<0.001 vs progesterone (One-way ANOVA followed by Dunnett's test).

[5] = test system: ovariectomised female Sprague Dawley rats; test: Plasma sexual hormone levels (radioimmunoassay) in ovariectomised female rats; format: in vivo, rat; settings: Compound (1) 3-10 mg/kg 1 h, progesterone 0.5 mg/0.1 ml s.c. 4 h before blood collection; vs vehicle
Experimental: Ovariectomised adult female Sprague Dawley rats (180-200 g) were housed in groups of 6 in a reversed lighting system of 12 h light:dark (lights off 7.00-19.00 h). They were used for the experiments at least two weeks after ovariectomy. Forty eight hours before tests, the animals were primed with oestradiol benzoate (5 μg/0.1 ml in corn oil, s.c.). Progesterone (0.5 mg/0.1 ml, in corn oil, s.c.) was administered 4 h before blood collection, as a positive control. Compound (1) (3-10 mg/kg, i.p.) was administered in 50% 2-hydroxypropyl-β-cyclodextrin, 1 h prior to blood collection. Blood was collected from the trunk, after decapitation. It was immediately centrifuged (3500 r.p.m., 4° C., 5 min) and the plasmas frozen until assayed for hormonal content, using commercially available radioimmunoassay kits (^125I-labelled hormones) for oestradiol, progesterone, LH, FSH and prolactin.

With `CNCCC(Oc1ccc(C(F)(F)F)cc1)c1ccccc1` (stereo not shown) [fluoxetine] the Ejaculation latency [1] was “also increased”, the Intromission latency [1] was “significantly increased” and the Mount latency [1] was “significantly increased”. The Refractory period [1] was “also increased”, the “number of mounts and intromissions required to achieve ejaculation” value [1] was “No changes” and the Ejaculation latency [2] was “significantly increased”. For the same molecule, the Mount latency [2] was “significantly increased” and the “percentage of animals ejaculating (within 30 minutes)” value [2] was “significantly lower”.
For `CC(=O)[C@H]1CC[C@H]2[C@@H]3CCC4=CC(=O)CC[C@]4(C)[C@H]3CC[C@]12C` [progesterone, reference compound], the “effect on proceptivity, day 1” value [3] was “stimulatory effect on proceptivity”, the “percentage of time spent investigating the male stimulus” value ([4]; progesterone 0.5 mg/0.1 ml s.c. 4 h before test, vs vehicle group) was “increased the percentage of time spent investigating the male stimulus” and the LH plasma levels [5] was “significant decrease”. For the same molecule, the progesterone plasma levels [5] was “significant increase”.
neuromedin B [NMB] was tested, and the “proceptivity in progesterone-treated rats” value ([4]; NMB 100 ng i.c.v. 10 min before test) was “significantly reduced proceptivity”.
